Test results: the CheMixHub ionic liquid set

Assay: xn = mol fraction of the nth substance listed

CC(C)C[C@H](N)C(=O)O + CCCC[n+]1ccn(C)c1.F[B-](F)(F)F + O
viscosity [mPa·s], 100 kPa
Conditions	293.15 K	298.15 K	303.15 K	308.15 K	313.15 K	318.15 K
x1 = 0.0002738, x2 = 0	1.013	0.9	0.807	0.729	0.663	0.605
x1 = 0.0002786, x2 = 0.0003728	1.044	0.93	0.848	0.763	0.705	0.65
x1 = 0.0002797, x2 = 0.0007255	1.076	0.964	0.881	0.802	0.749	0.694
x1 = 0.0002864, x2 = 0.001099	1.109	0.998	0.919	0.845	0.794	0.74
x1 = 0.0004577, x2 = 0.0007254	1.081	0.97	0.887	0.808	0.754	0.698
x1 = 0.0004593, x2 = 0	1.017	0.905	0.811	0.733	0.667	0.608
x1 = 0.0004597, x2 = 0.001099	1.115	1.004	0.925	0.85	0.8	0.746
x1 = 0.0004649, x2 = 0.0003727	1.049	0.935	0.852	0.768	0.709	0.654
x1 = 0.0006294, x2 = 0.0003726	1.054	0.94	0.857	0.772	0.714	0.659
x1 = 0.0006321, x2 = 0	1.022	0.909	0.815	0.736	0.67	0.612
x1 = 0.0006374, x2 = 0.0007252	1.086	0.975	0.892	0.812	0.759	0.704
x1 = 0.0006474, x2 = 0.001099	1.121	1.01	0.931	0.856	0.805	0.751
x1 = 0.0008066, x2 = 0	1.026	0.913	0.819	0.74	0.674	0.616
x1 = 0.0008173, x2 = 0.0003726	1.059	0.945	0.862	0.777	0.718	0.663
x1 = 0.0008279, x2 = 0.0007251	1.092	0.98	0.897	0.817	0.764	0.708
x1 = 0.0008314, x2 = 0.001099	1.127	1.016	0.936	0.861	0.81	0.756
x1 = 0.0009955, x2 = 0	1.031	0.917	0.823	0.744	0.678	0.619
x1 = 0.001003, x2 = 0.0003725	1.064	0.949	0.866	0.781	0.722	0.667
x1 = 0.001004, x2 = 0.000725	1.097	0.985	0.902	0.822	0.768	0.712
x1 = 0.00101, x2 = 0.001099	1.132	1.021	0.941	0.866	0.815	0.761
x1 = 0.001168, x2 = 0	1.035	0.921	0.826	0.747	0.681	0.622
x1 = 0.001172, x2 = 0.0007248	1.102	0.99	0.906	0.826	0.772	0.716
x1 = 0.001177, x2 = 0.0003724	1.069	0.954	0.871	0.785	0.726	0.671
x1 = 0.001183, x2 = 0.001099	1.138	1.026	0.946	0.871	0.82	0.766
x1 = 0.00135, x2 = 0.0003724	1.074	0.959	0.875	0.789	0.73	0.675
x1 = 0.001357, x2 = 0	1.04	0.925	0.83	0.751	0.684	0.625
x1 = 0.001369, x2 = 0.001098	1.144	1.031	0.951	0.876	0.825	0.771
x1 = 0.00137, x2 = 0.0007247	1.108	0.995	0.911	0.831	0.777	0.721
x1 = 0.001535, x2 = 0	1.044	0.929	0.834	0.755	0.688	0.629
x1 = 0.001541, x2 = 0.0003723	1.08	0.963	0.88	0.794	0.734	0.679
x1 = 0.001554, x2 = 0.001098	1.15	1.037	0.957	0.881	0.83	0.776
x1 = 0.001557, x2 = 0.0007246	1.113	0.999	0.915	0.835	0.781	0.725
x1 = 0.00172, x2 = 0	1.048	0.933	0.838	0.758	0.691	0.632
x1 = 0.00172, x2 = 0.0003722	1.085	0.968	0.884	0.797	0.738	0.682
x1 = 0.00172, x2 = 0.0007244	1.117	1.003	0.92	0.839	0.785	0.729
x1 = 0.001727, x2 = 0.001098	1.156	1.042	0.962	0.886	0.835	0.781

CCCCCCCC[P+](CC)(CC)CC.O=[N+]([O-])c1cn[n-]c1 + COCCOCCOCCOCCOC
100 kPa
Conditions	viscosity [mPa·s]
278.15 K, x2 = 0.503	78
283.15 K, x2 = 0	868
283.15 K, x2 = 0.404	97
288.15 K, x2 = 0	578
288.15 K, x2 = 0.102	327
303.15 K, x2 = 0.051	170
308.15 K, x2 = 0.199	69
313.15 K, x2 = 0.199	55
318.15 K, x2 = 0	94

CC(C)[C@H](N)C(=O)O + CCCCCCCCCCCC[N+](C)(C)Cc1ccccc1.[Cl-] + O
electrical conductivity [S/m], 101 kPa
Conditions	293.15 K	298.15 K	303.15 K	308.15 K	313.15 K
x1 = 0.0008894, x2 = 0	0.000591	0.000675	0.000763	0.000854	0.000953
x1 = 0.001757, x2 = 0	0.00102	0.00116	0.00131	0.00147	0.00164

CCC(=O)[O-].C[NH+](C)Cc1ccccc1 + CN(C)C=O
viscosity [mPa·s], 101 kPa
Conditions	293.15 K	298.15 K	303.15 K	308.15 K	313.15 K	318.15 K	323.15 K	328.15 K
x1 = 0.006283	0.957	0.915	0.878	0.846	0.817	0.79	0.767	0.745
x1 = 0.009868	0.965	0.923	0.885	0.852	0.822	0.795	0.771	0.749
x1 = 0.01556	0.974	0.93	0.893	0.858	0.828	0.8	0.776	0.753
x1 = 0.01941	0.985	0.94	0.901	0.866	0.834	0.807	0.781	0.758
x2 = 0.9599	1.036	0.986	0.94	0.9	0.865	0.834	0.806	0.781
x2 = 0.9647	1.025	0.975	0.932	0.893	0.858	0.828	0.801	0.776
x2 = 0.9703	1.012	0.964	0.922	0.884	0.851	0.821	0.794	0.77
x2 = 0.9751	0.997	0.95	0.91	0.873	0.841	0.813	0.787	0.764

CCCCCCCCCCCCCCCC[n+]1ccccc1.O=C([O-])C(O)c1ccccc1 + CC(C)[C@H](N)C(=O)O + O
electrical conductivity [S/m], 101 kPa
Conditions	293.15 K	298.15 K	303.15 K	308.15 K	313.15 K
x1 = 9.1e-07, x2 = 0.0009002	0.00089	0.00101	0.0011	0.0013	0.0014
x1 = 9.1e-07, x2 = 0.001799	0.00133	0.00151	0.0017	0.0019	0.0021
x1 = 1.08e-06, x2 = 0	0.00061	0.00068	0.00076	0.00083	0.0009
x1 = 1.98e-06, x2 = 0	0.001	0.0012	0.0013	0.0014	0.0016
x1 = 2e-06, x2 = 0.001799	0.00178	0.00203	0.0023	0.0025	0.0028
x1 = 2.17e-06, x2 = 0.0009002	0.0013	0.0015	0.0017	0.0019	0.0021
x1 = 2.88e-06, x2 = 0	0.00147	0.0016	0.0018	0.002	0.0022
x1 = 3.09e-06, x2 = 0.001799	0.00218	0.0025	0.0028	0.0031	0.0034
x1 = 3.26e-06, x2 = 0.0009002	0.00176	0.002	0.0022	0.0025	0.0028
x1 = 3.96e-06, x2 = 0	0.0019	0.0022	0.0024	0.0026	0.0029
x1 = 4e-06, x2 = 0.001799	0.00257	0.0029	0.0032	0.0036	0.004
x1 = 4.53e-06, x2 = 0.0009002	0.00226	0.00256	0.0029	0.0032	0.0035
x1 = 4.69e-06, x2 = 0	0.0023	0.0026	0.0029	0.0031	0.0035
x1 = 5.1e-06, x2 = 0.001799	0.00299	0.0034	0.0038	0.0042	0.0046
x1 = 5.95e-06, x2 = 0	0.00281	0.0032	0.0035	0.0038	0.0042
x1 = 5.98e-06, x2 = 0.0009002	0.00283	0.0032	0.0036	0.004	0.0044
x1 = 6.37e-06, x2 = 0.001799	0.00351	0.004	0.0044	0.0049	0.0055
x1 = 7.21e-06, x2 = 0	0.00341	0.0038	0.0042	0.0046	0.0051
x1 = 7.42e-06, x2 = 0.0009002	0.00334	0.00378	0.0042	0.0047	0.0051
x1 = 7.83e-06, x2 = 0.001799	0.00405	0.00458	0.0051	0.0057	0.0063
x1 = 8.83e-06, x2 = 0	0.00406	0.0046	0.005	0.0055	0.006
x1 = 8.87e-06, x2 = 0.0009002	0.00384	0.00435	0.0049	0.0054	0.006
x1 = 9.28e-06, x2 = 0.001799	0.00457	0.00517	0.0058	0.0064	0.0072
x1 = 1.032e-05, x2 = 0.0009002	0.00431	0.00487	0.0054	0.0061	0.0067
x1 = 1.045e-05, x2 = 0	0.00469	0.0053	0.0058	0.0065	0.0071
x1 = 1.074e-05, x2 = 0.001799	0.00499	0.00564	0.0063	0.0071	0.0079
x1 = 1.177e-05, x2 = 0.0009002	0.00466	0.00529	0.0059	0.0066	0.0074
x1 = 1.201e-05, x2 = 0.001799	0.00536	0.00607	0.0068	0.0076	0.0085
x1 = 1.207e-05, x2 = 0	0.00516	0.0058	0.0064	0.0071	0.0079
x1 = 1.322e-05, x2 = 0.0009002	0.00502	0.00569	0.0064	0.0071	0.0079
x1 = 1.347e-05, x2 = 0.001799	0.00572	0.00647	0.0073	0.0081	0.009
x1 = 1.351e-05, x2 = 0	0.00562	0.00631	0.007	0.0077	0.0085
x1 = 1.431e-05, x2 = 0.0009002	0.00533	0.00604	0.00678	0.0076	0.0084
x1 = 1.474e-05, x2 = 0.001799	0.00607	0.00687	0.0077	0.0086	0.0096
x1 = 1.478e-05, x2 = 0	0.00603	0.0068	0.0075	0.0083	0.0092
x1 = 1.557e-05, x2 = 0.0009002	0.00565	0.0064	0.00717	0.008	0.0089
x1 = 1.583e-05, x2 = 0.001799	0.00637	0.0072	0.0081	0.009	0.01
x1 = 1.622e-05, x2 = 0	0.00644	0.0072	0.008	0.0089	0.0098
x1 = 1.666e-05, x2 = 0.0009002	0.006	0.00675	0.0076	0.0084	0.0094
x1 = 1.766e-05, x2 = 0	0.00687	0.0077	0.0085	0.0094	0.0104

CC(C)(C)O + CCCC[n+]1ccn(C)c1.O=S(=O)([N-]S(=O)(=O)C(F)(F)F)C(F)(F)F
298 K, 101 kPa
Conditions	electrical conductivity [S/m]	viscosity [mPa·s]
x1 = 0.6042	0.52	–
x1 = 0.653	0.504	–
x1 = 0.8516	–	9.27
x2 = 0.0182	–	4.38

C[C@@H](O)[C@H](N)C(=O)O + CCCCCCCCCCCCCCCC[n+]1ccccc1.[Cl-] + O
308.15 K, 101 kPa
Conditions	electrical conductivity [S/m]
x1 = 2.018e-05, x2 = 0	0.000218
x1 = 0.0002, x2 = 0	7.7e-05
x1 = 0.0009182, x2 = 0	0.000219
